The term viability denotes a read-out of living cells in per cent, often relative to untreated cells.

“Also recorded” adds a separate entry of the source.

Data set [1] relates to IMQ-induced psoriasis-like skin inflammation. Nature of the data set: Mouse model of IMQ-induced psoriasis-like skin inflammation. In kind it is in vivo, BALB/c mice. Conditions: topical Clobetasol 0.02%. On the procedure: All experimental procedures were approved by the Mackay Memorial Hospital Animal Care and Uses Committee and conducted according to national animal welfare regulations. Psoriasis-like skin inflammation was created by treating mouse skin with Imiquimod (IMQ) in accordance with the procedures described by van der Fits et al (J Immunol. (2009), 182, 5836-5845). Accordingly, each BALB/c mice (8 weeks old) received a daily topical dose of 62.5 mg of commercially available IMQ cream (5%) on the shaved back and the right ear for 6 consecutive days; whereas the control mice (normal group) were treated with a control cream. For treatment, 7-mer analogue was mixed with IMQ cream to a concentration 100 μM.
Keratinocyte proliferation was determined by 5-bromo-2′-deoxyuridine (BrdU) incorporation. BrdU (Sigma-Aldrich) was reconstituted in DMSO as a stock solution of 80 mM. 10 μl of BrdU mixed with 90 μl of PBS was intraperitoneally injected into each mouse for 24 hr prior to euthanasia. Back skin was fixed overnight in 4% paraformaldehyde and embedded in paraffin for immunohistochemistry.
In this example, the efficacy of the present synthetic peptides of Example 1 on IMQ-induced psoriasis-like skin inflammation was investigated. To this purpose, animals (8-week-old mice) were given a daily topical dose of IMQ cream on the shaved back for six consecutive days, so as to induce psoriasis-like skin inflammation and desquamation (FIG. 1; left panel).
Psoriasis is a disease resulted from abnormal keratinocyte proliferation, thus the effects of the present synthetic peptides on the proliferation of keratinocytes were also monitored in accordance with procedures described in the section of “Materials and Methods”. Results are illustrated in FIG. 2.

The next data set in a line: in vitro. The data set is classed as cell-based, murine. The conditions noted are these: mouse.
Data set [2] deals with Raw264.7 macrophage cells. Nature of the data set: in vitro. The data set is classed as cell-based, murine. Conditions: Example 1 results.

For `C[C@H]1C[C@H]2[C@@H]3CCC4=CC(=O)C=C[C@]4(C)[C@@]3(F)[C@@H](O)C[C@]2(C)[C@@]1(O)C(=O)CCl` [Clobetasol, reference compound], in data set [1] (FIG. 1), the desquamation formation result is reported as “ameliorated desquamation formation”. Also, the skin atrophy result in data set [1] (entire back of test animals) was “caused skin atrophy”.
With `CC[C@H](C)[C@H](NC(=O)[C@H](CCCNC(=N)N)NC(=O)[C@H](Cc1c[nH]c2ccccc12)NC(=O)[C@H](CC(C)C)NC(=O)[C@H](CC(=O)O)NC(C)=O)C(=O)N[C@@H](CCCNC(=N)N)C(=O)N[C@@H](CO)C(N)=O` [7-mer WI, NH2-Asp-Leu-Trp-Arg-Ile-Arg-Ser-COOH], the viability at 24 h, 20 μM in the data set “in vitro” (Raw264.7 cell viability) is 77.9 ± 2.87%. The “bioactivity / inhibitory activity relative to 7-mer (in words)” value in data set [2] is “could sustain 7-mer bioactivity, only partly”.
Turning to `CC(=O)N[C@@H](CC(=O)O)C(=O)N[C@H](C(=O)N[C@@H](Cc1ccccc1)C(=O)N[C@@H](CCCNC(=N)N)C(=O)N[C@H](C(=O)N[C@@H](CCCNC(=N)N)C(=O)N[C@H](C(N)=O)[C@@H](C)O)C(C)C)C(C)C` [7-mer VFT, NH2-Asp-Val-Phe-Arg-Val-Arg-Thr-COOH], in the data set “in vitro” (Raw264.7 cell viability), the viability at 24 h, 20 μM worked out at 71.1 ± 2.48%. Further, the “bioactivity / inhibitory activity relative to 7-mer (in words)” value in data set [2] was “could sustain 7-mer bioactivity, only partly; also recorded: relatively the same bioactivity that is similar to the 7-mer”.
Turning to `CC(=O)N[C@@H](CC(=O)O)C(=O)N[C@@H](CC(C)C)C(=O)N[C@@H](Cc1ccc(O)cc1)C(=O)N[C@@H](CCCNC(=N)N)C(=O)N[C@H](C(=O)N[C@H](CCCNC(=N)N)C(=O)N[C@@H](CO)C(N)=O)C(C)C` [7-mer DR2, NH2-Asp-(D-Leu)-Tyr-Arg-Val-(D-Arg)-Ser-COOH], the viability at 24 h, 20 μM in the data set “in vitro” (Rar264.7 cell viability) came out at 103 ± 2.51%. In data set [2], the “bioactivity / inhibitory activity relative to 7-mer (in words)” value is recorded as “lose its biological activity”.
For `CC(=O)N[C@@H](CC(=O)O)C(=O)N[C@H](CC(C)C)C(=O)N[C@@H](Cc1ccc(O)cc1)C(=O)N[C@@H](CCCNC(=N)N)C(=O)N[C@H](C(=O)N[C@@H](CCCNC(=N)N)C(=O)N[C@@H](CO)C(N)=O)C(C)C` [7-mer DL, NH2-Asp-(D-Leu)-Tyr-Arg-Val-Arg-Ser-COOH], in the data set “in vitro” (Rar264.7 cell viability), the viability at 24 h, 20 μM was 101 ± 1.48%. In addition, in data set [2], the “bioactivity / inhibitory activity relative to 7-mer (in words)” value is reported as “lose its biological activity”.
For the compound `CC(=O)N[C@@H](CC(=O)O)C(=O)N[C@@H](C)C(=O)N[C@@H](Cc1ccc(O)cc1)C(=O)N[C@@H](CCCNC(=N)N)C(=O)N[C@H](C(=O)N[C@@H](CCCNC(=N)N)C(=O)N[C@@H](CO)C(N)=O)C(C)C` [7-mer La, NH2-Asp-Ala-Tyr-Arg-Val-Arg-Ser-COOH], the viability at 24 h, 20 μM in the data set “in vitro” (Raw264.7 cell viability) amounted to 57.4 ± 1.71%. Besides, the “bioactivity / inhibitory activity relative to 7-mer (in words)” value in data set [2] is reported as “could sustain the inhibitory activity”.
With `CC(=O)N[C@H](C(=O)N[C@@H](CC(C)C)C(=O)N[C@@H](Cc1ccc(O)cc1)C(=O)N[C@@H](CCCNC(=N)N)C(=O)N[C@H](C(=O)N[C@@H](CCCNC(=N)N)C(=O)N[C@@H](CO)C(N)=O)C(C)C)C(C)C` [7-mer (D→V), NH2-Val-Leu-Tyr-Arg-Val-Arg-Ser-COOH], in “in vitro” (Raw264.7 cell viability), the viability at 24 h, 20 μM worked out at 56.8 ± 3.53%. In addition, the “bioactivity / inhibitory activity relative to 7-mer (in words)” value is on record as “relatively the same bioactivity that is similar to the 7-mer” in data set [2] and “could sustain 7-mer bioactivity, only partly” in data set [2] (listed as 7-mer (D→N)).
Consider `CC(=O)N[C@@H](CC(=O)O)C(=O)N[C@@H](CC(C)C)C(=O)N[C@@H](Cc1ccc(O)cc1)C(=O)N[C@@H](CCCNC(=N)N)C(=O)N[C@H](C(=O)N[C@@H](CCCNC(=N)N)C(=O)N[C@H](CO)C(N)=O)C(C)C` [7-mer DS, NH2-Asp-Leu-Tyr-Arg-Val-Arg-(D-Ser)-COOH], for which the viability at 24 h, 20 μM in the data set “in vitro” (Rar264.7 cell viability) came to 107 ± 2.23%. Also, the “bioactivity / inhibitory activity relative to 7-mer (in words)” value in data set [2] was “lose its biological activity”.
For `CC[C@H](C)[C@H](NC(=O)[C@H](CC(=O)O)NC(C)=O)C(=O)N[C@@H](Cc1ccc(O)cc1)C(=O)N[C@@H](CCCNC(=N)N)C(=O)N[C@H](C(=O)N1CCC[C@H]1C(=O)N[C@@H](CO)C(N)=O)C(C)C` [7-mer IP, NH2-Asp-Ile-Tyr-Arg-Val-Pro-Ser-COOH], in “in vitro” (Raw264.7 cell viability), the viability at 24 h, 20 μM turned out to be 81.7 ± 4.5%. Moreover, in data set [2], the “bioactivity / inhibitory activity relative to 7-mer (in words)” value is on record as “could sustain 7-mer bioactivity, only partly”.
Consider `CC(=O)N[C@@H](CC(=O)O)C(=O)N[C@@H](CC(C)C)C(=O)N[C@@H](Cc1ccc(O)cc1)C(=O)N[C@@H](CCCNC(=N)N)C(=O)N[C@H](C(=O)N[C@@H](CCC(N)=O)C(=O)N[C@@H](CO)C(N)=O)C(C)C` [7-mer (R2→Q), NH2-Asp-Leu-Tyr-Arg-Val-Gln-Ser-COOH], for which, in the data set “in vitro” (Raw264.7 cell viability), the viability at 24 h, 20 μM stood at 68.4 ± 1.25%. The “bioactivity / inhibitory activity relative to 7-mer (in words)” value in data set [2] is “could sustain 7-mer bioactivity, only partly”.
With `CC(=O)N[C@@H](Cc1ccccc1)C(=O)N[C@@H](CC(C)C)C(=O)N[C@@H](Cc1ccc(O)cc1)C(=O)N[C@@H](CCCNC(=N)N)C(=O)N[C@H](C(=O)N[C@@H](CCCNC(=N)N)C(=O)N[C@@H](CO)C(N)=O)C(C)C` [7-mer (D→F), NH2-Phe-Leu-Tyr-Arg-Val-Arg-Ser-COOH], the viability at 24 h, 20 μM in “in vitro” (Raw264.7 cell viability) was 61.9 ± 4.91%. Further, in data set [2], the “bioactivity / inhibitory activity relative to 7-mer (in words)” value is on record as “could sustain 7-mer bioactivity, only partly; also recorded: relatively the same bioactivity that is similar to the 7-mer”.

Source of the values: patent US10463710B2, “Short synthetic peptide for the treatment and/or prophylaxis of autoimmune and inflammatory disorders” (MacKay Memorial Hospital, priority 2015, dated 2019).
